Data: patent US20250197356A1, “METHOD FOR SYNTHESIZING NUCIFERINE OR DERIVATIVE THEREOF, DERIVATIVE OF NUCIFERINE AND USE THEREOF” (HUAQIAO UNIVERSITY, priority 2022, published 2025)

Legend:
hyperlipidemia rats [1] = assay: Liver appearance and HE histopathological observation in hyperlipidemia rats; format: in vivo, SD rats; conditions: compared with the model group, 20 mg/(kg d)
From the text: (§1) Animals: 54 SPF-grade SD rats, weighing 120±10 g, provided by Laboratory Animal Business Department, Shanghai Family Planning Research Institute, China, Animal license number: SCXK(Shanghai)2018-0006.
(§2) Modeling scheme: 54 adult rats of 120±10 g were selected and fed adaptively for three days. They were then randomly divided to 6 groups, 9 animals for each group. They were blank control group, model group, positive control group, nuciferine group, and nuciferine structural modification group. The blank control group was fed with normal diet. […] The feeding and modeling time was 5 weeks.
(§3) Liver tissue sample collection: the rats were killed by dislocation, and the liver was taken out immediately after death, which was observed by naked eye to find out whether there was abnormal color and lesions, and was then rinsed with ice normal saline. The left lobe of the liver was quickly cut into small pieces and fixed in 10% formaldehyde overnight for sectioning. The tissue of the right lobe of the liver was quickly wrapped in tin box and stored at −80° C. for later use.

hyperlipidemia rats [2] = assay: Liver and kidney indexes in high-fat diet hyperlipidemia rats; format: in vivo, SD rats; conditions: 20 mg/(kg d) by gastric gavage, 4 weeks, x ± s, n = 9
From the text: as §1, §2, §3

[3] = TCMSP database, screening threshold OB ≥30%; cited from earlier work
TNF-α = assay: Immunohistochemistry of liver of hyperlipidemia rats; format: in vivo, SD rats; conditions: compared with the model group, 20 mg/(kg d)
From the text: as §1
(§4) Drug to be tested: Nuciferine purchased from Shanghai Aladdin Biochemical Technology Co., Ltd., China, and its derivatives (purity >99%) that were synthesized in the laboratory by the methods of Examples 2-7.
(§5) Other reagents: AST, ALT, TC, TG, NEFA, Bun, Cr, CAT, GSH-Px, GSH, MDA test kits, purchased from Nanjing Jiancheng Bioengineering Institute, China; HL and PL test kits, purchased from Jianglai Biotechnology Co., Ltd., China; experimental reagents such as anhydrous ethanol, xylene, isopropanol neutral gum, purchased from Sinopharm Chemical Reagent Co., Ltd., China; HE dye solution, DAB color development agent, and oil red O dye solution, purchased from KeyGEN Biotechnology Co., Ltd, China; Antibodies IL-6 and TNF-α, purchased from Abcam Limited.
as §2, with “weeks. […]” for “weeks.”

IL-6 = assay: as above; format: in vivo, SD rats; conditions: compared with the model group, 20 mg/(kg d)
From the text: as §1, §4, §5
as §2, with “weeks. […]” for “weeks.”

hyperlipidemia rats [4] = assay: Liver tissue homogenate biochemical indicators in high-fat diet hyperlipidemia rats; format: in vivo, SD rats; conditions: for CAT (U/mgprot) / GSH (μmol/gprot) / GSH-Px (U/mgprot) / HL (U/mgprot) / LPL (U/mgprot) / MDA (nmol/mgprot) / NEFA (μmol/g prot) / TG (mmol/g prot): liver tissue, 20 mg/(kg d) by gastric gavage, 4 weeks, x ± s, n = 9
From the text: as §1, §4, §5
as §2, with “weeks. Within 4 weeks after modeling, continuous administration was performed: the blank control group and model group were given 0.2 mL of distilled water by gastric gavage; the positive control group was administrated 20 mg/(kg d) of simvastatin; while the treatment group was administrated 20 mg/(kg d) of nuciferine or 20 mg/(kg d) of a derivative of nuciferine (compounds 6a-6f).” for “weeks.”
as §3
Preparation of 10% liver homogenate: the liver wrapped in tin box and stored in the ultra-low temperature freezer at −80° C. was taken out, and quickly placed on an ice box. 0.2 g of liver tissue was accurately taken, and ice normal saline with a volume 9 times that of the liver issue was added thereto. 10% tissue homogenate was formed by grounding and mixing, and then centrifuged at 3000 r/min and 4° C. for 10 min. The supernatant was collected for later use.
(§6) Biochemical indicator determination: indicators AST, ALT, TC, TG, NEFA, Bun, Cr, CAT, GSH-Px, GSH, MDA, HL, PL were determined according to the instructions of the kits.

hyperlipidemia rats [5] = assay: Serum biochemical indicators in high-fat diet hyperlipidemia rats; format: in vivo, SD rats; conditions: for LDL-C / TC / TG / ALT (U/L) / AST (U/L) / Bun / Cr: serum, 20 mg/(kg d) by gastric gavage, 4 weeks; for ALT (U/L) / AST (U/L) / Bun / Cr: x ± s, n = 9
From the text: as §1, §4, §5
as §2, with “weeks. Within 4 weeks after modeling, continuous administration was performed: the blank control group and model group were given 0.2 mL of distilled water by gastric gavage; the positive control group was administrated 20 mg/(kg d) of simvastatin; while the treatment group was administrated 20 mg/(kg d) of nuciferine or 20 mg/(kg d) of a derivative of nuciferine (compounds 6a-6f).” for “weeks.”
Blood sample collection: 24 h after the last gastric gavage administration, eyeballs were taken out and blood was drawn. Whole blood was collected in an EP tube, and centrifuged at 3000 r/min and 4° C. for 10 min, and the supernatant was collected and stored at −20° C. for blood biochemical indicator test.
as §6

hyperlipidemia rats [6] = assay: Oil red O staining of liver in hyperlipidemia rats; format: in vivo, SD rats; conditions: compared with the model group, 20 mg/(kg d)
From the text: as §1, §4
as §2, with “weeks. Within 4 weeks after modeling, continuous administration was performed: the blank control group and model group were given 0.2 mL of distilled water by gastric gavage; the positive control group was administrated 20 mg/(kg d) of simvastatin; while the treatment group was administrated 20 mg/(kg d) of nuciferine or 20 mg/(kg d) of a derivative of nuciferine (compounds 6a-6f). […]” for “weeks.”

Row | SMILES | Kidney index (%) (hyperlipidemia rats [2]) | Liver index (%) (hyperlipidemia rats [2]) | CAT (U/mgprot) (hyperlipidemia rats [4]) | GSH (μmol/gprot) (hyperlipidemia rats [4]) | GSH-Px (U/mgprot) (hyperlipidemia rats [4]) | HL (U/mgprot) (hyperlipidemia rats [4]) | LPL (U/mgprot) (hyperlipidemia rats [4]) | MDA (nmol/mgprot) (hyperlipidemia rats [4]) | NEFA (μmol/g prot) (hyperlipidemia rats [4]) | TG (mmol/g prot) (hyperlipidemia rats [4]) | LDL-C (hyperlipidemia rats [5]) | TC (hyperlipidemia rats [5]) | TG (hyperlipidemia rats [5]) | ALT (U/L) (hyperlipidemia rats [5]) | AST (U/L) (hyperlipidemia rats [5]) | Bun (hyperlipidemia rats [5]) | Cr (hyperlipidemia rats [5]) | further results
1 | COc1cc2c3c(c1OC)-c1ccccc1C[C@H]3N(C)CC2 [Nuciferine] | 0.68 ± 0.04 % | 4.52 ± 0.30 % | 28.44 ± 3.34 U/mgprot | 377.68 ± 137.77 μmol/gprot | 720.65 ± 59.57 U/mgprot | 0.47 ± 0.05 U/mgprot | 0.43 ± 0.07 U/mgprot | 0.92 ± 0.15 nmol/mgprot | 99.87 ± 8.25 μmol/g prot | 0.08 ± 0.01 mmol/g prot | 0.53 ± 0.12 mmol/L | 1.90 ± 0.19 mmol/L | 0.48 ± 0.04 mmol/L | 13.97 ± 5.71 U/L | 6.43 ± 1.56 U/L | 3.27 ± 0.22 mmol/L | 52.59 ± 4.81 µmol/L | HE-stained liver tissue: lipid vacuoles and inflammatory infiltration (FIG. 9) (hyperlipidemia rats [1]): lipid vacuoles in hepatocytes are significantly reduced; OB/% (oral bioavailability) [3]: 34.43%; Expression level of TNF-α in liver (FIG. 12) (TNF-α): decrease; Expression level of IL-6 in liver (FIG. 11) (IL-6): decrease; HL and LPL contents in liver tissue, result in words (hyperlipidemia rats [4]; compared with the model group): best effect; NEFA content in liver tissue, result in words (hyperlipidemia rats [4]; compared with the model group): significantly decreases; Content of HDL-C in the serum, result in words (hyperlipidemia rats [5]; compared with the model group): significantly increases; Serum AST and ALT contents, result in words (hyperlipidemia rats [5]; compared with the model group): best effect; Oil red O-stained liver sections: lipid accumulation (FIG. 10) (hyperlipidemia rats [6]): reduced fat accumulation
2 | COc1cc2c3c(c1OC)-c1ccccc1CC3N(C(=O)c1ccccc1)CC2 (centres unmarked) [Compound 6a, Benzoylnuciferine] | 0.68 ± 0.04 % | 4.58 ± 0.29 % | 26.06 ± 2.69 U/mgprot | 360.02 ± 43.63 μmol/gprot | 550.96 ± 60.97 U/mgprot | 0.35 ± 0.03 U/mgprot | 0.27 ± 0.03 U/mgprot | 0.94 ± 0.27 nmol/mgprot | 107.69 ± 6.44 μmol/g prot | 0.10 ± 0.02 mmol/g prot | 0.54 ± 0.09 mmol/L | 1.94 ± 0.18 mmol/L | 0.56 ± 0.05 mmol/L | 15.46 ± 8.79 U/L | 7.85 ± 2.23 U/L | 3.16 ± 0.17 mmol/L | 51.82 ± 7.06 µmol/L | Liver appearance (photographs, FIG. 8) (hyperlipidemia rats [1]): more brittle
